This note sets out measurements from PMC9181915, “Synthesis and Anti-Neuroinflammatory Activity of 1,7-diphenyl-1,4-heptadien-3-ones in LPS-Stimulated BV2 Microglia Via Inhibiting NF-κB/MAPK Signaling Pathways” (Molecules, 2022).

Data set [1] in a line: MTT cell viability assay in BV2 microglia cells. Format: cell-based. The following applies: mouse, mean ± SD, n = 3. The method, then:
(§1) The BV2 microglial cells were purchased from the China Center for Type Culture Collection, CCTCC (Wuhan, Hubei). BV2 microglia cells were incubated in DMEM media supplemented with 10% (v/v) FBS, 100 U/mL penicillin G and […] streptomycin at 37 °C with 5% CO2.
Cell viability assays were evaluated using a 3-(4,5-dimethylthiazol-2-yl)-2,5-diphenyltetrazolium bromide (MTT) assay. BV2 microglia cells were seeded in 96-well plates at a density of 1.6 × 10^5 cells/well in complete medium and incubated for 24 h. Then, the culture medium was sucked and discarded, and sterile PBS was added for washing, and then PBS was removed. Then the cells were treated with different concentrations of target compounds for 24 h. An amount equal to 100 μL of MTT was added to each well and the cells were further incubated for 2–4 h. An amount equal to 150 μL of DMSO was added into a 96-well plate and vibrated with micro-oscillator for 10 min. The optical density (A) was measured at […] on a microplate reader. The inhibitory rate of the various concentrations of agents in BV2 cells was calculated using the following formula:Cell viability (%) = [A492 (sample) − A492 (blank)]/[A492 (control) − A492 (blank)] × 100%
On the technique in general: Formazan colour is commonly taken as a measure of viable cells.

Data set [2] has as its system LPS-induced NO release in BV2 cells. Nature of the data set: Inhibition of LPS-induced NO release in BV2 cells. Format: cell-based. The following applies: Mus musculus, BV-2; for inhibition at 1 µM / inhibition at 3 µM: pretreated 1 h, then LPS 1 μg/mL for 24 h, BV2 cells; for IC50: BV2 cells, 0.3, 1.0, 3.0 μM, LPS 1 μg/mL 24 h, mean ± SD, n = 3, read-out: IC50 to inhibit LPS-induced NO release. The procedure: as §1
Nitrite, a stable product of nitric oxide, was used to assess NO production. To study the effects of the compounds on NO production, BV2 microglia cells in the logarithmic phase were plated at 1 × 10^5 cells/well in a 24-well microplate and incubated in DMEM medium (10% FBS) overnight. The cells were pretreated with various concentrations of the test compounds for 1 h and further co-cultured with 1 μg/mL LPS and 5% CO2 for 24 h in a 37 °C incubator; then, the supernatant was taken and stored at −20 °C for NO detection. The target compound and LPS were configured with DMEM medium (2% FBS). The determination of NO was carried out according to the instructions. Unpretreated and unstimulated BV2 microglia cells were conducted as the blank control group. The absorbance value was determined at 540 nm, and the corresponding NO content was calculated by using the standard curve. The NO inhibitory rate of the various concentrations of agents in BV2 cells was calculated as per the following formula:Inhibition rate (%) = (LPS(NO concentration) − sample(NO concentration))/(LPS(NO concentration) − negative control(NO concentration)) × 100%.

A word on the viability: it is a read-out of living cells in per cent, often relative to untreated cells. The term inhibition denotes how much of the control response was suppressed. One may read the melting point as the temperature of the solid-liquid transition. Take `O=C(/C=C/CCc1ccccc1)/C=C/c1ccccc1O` [CU-5, (1E,4E)-1-(2-hydroxyphenyl)-7-phenyl-1,4-heptadien-3-one]: the melting point fell in the range of 134 to 136 °C. Also, in data set [1], the viability at 24 h, 1 µM was 95.68 ± 0.11%; the viability at 24 h, 3 µM turned out to be 77.39 ± 0.3%; the viability at 24 h, 10 µM turned out to be 15.9 ± 0.61%. Besides, the inhibition at 1 µM in data set [2] stood at 0%.
The compound `COc1cc(/C=C/C(=O)/C=C/CCc2ccc(O)cc2)ccc1O` [CU-17, (1E,4E)-1-(4-hydroxy-3-methoxyphenyl)-7-(4-hydroxyphenyl)-1,4-heptadien-3-one] returned a melting point of 141 to 143 °C. For the same compound, in data set [1], the viability at 24 h, 1 µM stood at 99.36 ± 0.01%; the viability at 24 h, 3 µM was 80.72 ± 0.2%; the viability at 24 h, 10 µM stood at 32.4 ± 0.67%. In addition, the inhibition at 1 µM in data set [2] turned out to be 0%.
In the case of `Cc1ccc(/C=C/C(=O)/C=C/CCc2ccccc2)cc1` [CU-16, (1E,4E)-7-phenyl-1-(p-tolyl)-1,4-heptadien-3-one], the melting point was in the range of 46 to 48 °C. Also, in data set [1], the viability at 24 h, 1 µM is 95 ± 0.08%; the viability at 24 h, 3 µM was 88.57 ± 0.28%; the viability at 24 h, 10 µM turned out to be 33.3 ± 1.2%. Moreover, the inhibition at 3 µM in data set [2] turned out to be 15.4%.
`COc1cc(/C=C/C(=O)/C=C/CCc2ccccc2)cc(OC)c1OC` [CU-4, (1E,4E)-7-phenyl-1-(3,4,5-trimethoxyphenyl)-1,4-heptadien-3-one] showed a melting point of 95 to 97 °C. In data set [1], the viability at 24 h, 1 µM is 107.23 ± 0.09%; the viability at 24 h, 3 µM was 73.92 ± 0.3%; the viability at 24 h, 10 µM was found to be 16.6 ± 0.45%. In addition, the inhibition at 1 µM in data set [2] is 3.1%.
The term IC50 denotes the concentration that gives 50% inhibition. Take `COc1ccc(/C=C/C(=O)/C=C/CCc2ccc(OC)cc2)cc1` [CU-14, (1E,4E)-1,7-bis(4-methoxyphenyl)-1,4-heptadien-3-one]: the melting point fell in the range of 65 to 67 °C. In data set [1], the viability at 24 h, 1 µM turned out to be 97.96 ± 0.01%; the viability at 24 h, 3 µM was found to be 97.44 ± 0.03%; the viability at 24 h, 10 µM is 18.06 ± 0.1%. Besides, in data set [2], the inhibition at 3 µM worked out at 49.7% and the IC50 was 2430 ± 450 nM.
As to `COc1ccc(/C=C/C(=O)/C=C/CCc2ccccc2)cc1O` [CU-8, (1E,4E)-1-(3-hydroxy-4-methoxyphenyl)-7-phenyl-1,4-heptadien-3-one], the melting point was in the range of 72 to 74 °C. In data set [1], the viability at 24 h, 1 µM came to 101.18 ± 0.04%; the viability at 24 h, 3 µM was 97.4 ± 0.07%; the viability at 24 h, 10 µM turned out to be 18.2 ± 0.86%. Also, the inhibition at 3 µM in data set [2] turned out to be 18.8%.
As to `COc1cc(CC/C=C/C(=O)/C=C/c2ccccc2)cc(OC)c1OC` [CU-27, (1E,4E)-1-phenyl-7-(3,4,5-trimethoxyphenyl)-1,4-heptadien-3-one], in data set [1], the viability at 24 h, 1 µM was 116.1 ± 0.44%; the viability at 24 h, 3 µM came to 101.31 ± 0.03%; the viability at 24 h, 10 µM was 38.9 ± 1.19%. For the same compound, the inhibition at 3 µM in data set [2] turned out to be 7.02%.
`COc1ccc(/C=C/C(=O)/C=C/CCc2ccc(OC)c(OC)c2)cc1OC` [CU-2, (1E,4E)-1,7-bis(3,4-dimethoxyphenyl)-1,4-heptadien-3-one] registered a melting point of 97 to 99 °C. In data set [1], the viability at 24 h, 1 µM stood at 76.92 ± 0.19%; the viability at 24 h, 3 µM stood at 49.2 ± 0.92%; the viability at 24 h, 10 µM is 10.6 ± 1.13%. For the same compound, the inhibition at 1 µM in data set [2] was 0%.
Compound `O=C(/C=C/CCc1ccccc1)/C=C/c1ccc(Cl)cc1` [CU-10, (1E,4E)-1-(4-chlorophenyl)-7-phenyl-1,4-heptadien-3-one] came in with a melting point of 70 to 72 °C. Further, in data set [1], the viability at 24 h, 1 µM stood at 95.54 ± 0.03%; the viability at 24 h, 3 µM was 95.27 ± 0.16%; the viability at 24 h, 10 µM was 48.7 ± 2.93%. The inhibition at 3 µM in data set [2] came out at 0%.
`O=C(/C=C/CCc1ccccc1)/C=C/c1ccc(O)cc1` [CU-7, (1E,4E)-1-(4-hydroxyphenyl)-7-phenyl-1,4-heptadien-3-one] yielded a melting point of 121 to 123 °C. In data set [1], the viability at 24 h, 1 µM turned out to be 93.46 ± 0.35%; the viability at 24 h, 3 µM was 52.8 ± 0.5%; the viability at 24 h, 10 µM stood at 14.3 ± 0.7%. The inhibition at 1 µM in data set [2] was found to be 0%.
Compound `Cc1ccc(CC/C=C/C(=O)/C=C/c2ccccc2)cc1` [CU-22, (1E,4E)-1-phenyl-7-(p-tolyl)-1,4-heptadien-3-one] registered a melting point of 62 to 64 °C. Also, in data set [1], the viability at 24 h, 1 µM came out at 95.14 ± 0.05%; the viability at 24 h, 3 µM worked out at 88.76 ± 0.06%; the viability at 24 h, 10 µM is 46.6 ± 0.59%. Further, in data set [2], the inhibition at 3 µM is 48.2% and the IC50 is over 3000 nM.
Consider `Cc1ccc(CC/C=C/C(=O)/C=C/c2ccc(O)cc2)cc1` [CU-11, (1E,4E)-1-(4-hydroxyphenyl)-7-(p-tolyl)-1,4-heptadien-3-one], for which the melting point is 132 to 134 °C. In data set [1], the viability at 24 h, 1 µM turned out to be 99.17 ± 0.01%; the viability at 24 h, 3 µM was found to be 91.61 ± 0.09%; the viability at 24 h, 10 µM was 11.2 ± 0.56%. Further, the inhibition at 3 µM in data set [2] came to 0%.
With `O=C(/C=C/CCc1ccccc1)/C=C/c1ccccc1` [CU-15, (1E,4E)-1,7-diphenyl-1,4-heptadien-3-one], in data set [1], the viability at 24 h, 1 µM was 104.99 ± 0.03%; the viability at 24 h, 3 µM is 103.11 ± 0.03%; the viability at 24 h, 10 µM amounted to 84.19 ± 0.21%. Moreover, the inhibition at 3 µM in data set [2] was found to be 13.7%.
For the compound `O=C(/C=C/CCc1cccc(O)c1)/C=C/c1ccccc1` [CU-24, (1E,4E)-7-(3-hydroxyphenyl)-1-phenyl-1,4-heptadien-3-one], the melting point was in the range of 70 to 72 °C. For the same compound, in data set [1], the viability at 24 h, 1 µM was 103.49 ± 0.02%; the viability at 24 h, 3 µM came to 91.48 ± 0.07%; the viability at 24 h, 10 µM is 23.17 ± 0.09%. Further, the inhibition at 3 µM in data set [2] was found to be 0%.
For `O=C(/C=C/CCc1ccc(Cl)cc1)/C=C/c1ccccc1` [CU-28, (1E,4E)-7-(4-chlorophenyl)-1-phenyl-1,4-heptadien-3-one], the melting point is 48 to 50 °C. In data set [1], the viability at 24 h, 1 µM turned out to be 95.71 ± 0.07%; the viability at 24 h, 3 µM was found to be 94.75 ± 0.05%; the viability at 24 h, 10 µM came to 81.65 ± 0.22%. The inhibition at 3 µM in data set [2] came out at 33.6%.
In turn, `COc1ccc(/C=C/C(=O)/C=C/CCc2ccc(O)cc2)cc1O` [CU-18, (1E,4E)-1-(3-hydroxy-4-methoxyphenyl)-7-(4-hydroxyphenyl)-1,4-heptadien-3-one] registered a melting point of 152 to 154 °C. In data set [1], the viability at 24 h, 1 µM turned out to be 96.14 ± 0.03%; the viability at 24 h, 3 µM amounted to 46.6 ± 1.16%; the viability at 24 h, 10 µM is 8.63 ± 0.373%. For the same compound, the inhibition at 1 µM in data set [2] amounted to 2.15%.
Take `O=C(/C=C/CCc1ccc(O)cc1)/C=C/c1ccc(O)cc1` [CU-1, (1E,4E)-1,7-bis(4-hydroxyphenyl)-1,4-heptadien-3-one]: in data set [1], the viability at 24 h, 1 µM amounted to 88.07 ± 0.19%; the viability at 24 h, 3 µM was 49.84 ± 0.27%; the viability at 24 h, 10 µM was 23.7 ± 0.38%. The inhibition at 1 µM in data set [2] is 0%.
The compound `COc1cc(/C=C/C(=O)/C=C/CCc2ccccc2)ccc1O` [CU-9, (1E,4E)-1-(4-hydroxy-3-methoxyphenyl)-7-phenyl-1,4-heptadien-3-one] gave a melting point of 114 to 116 °C. For the same compound, in data set [1], the viability at 24 h, 1 µM turned out to be 99.38 ± 0.01%; the viability at 24 h, 3 µM came to 94.65 ± 0.07%; the viability at 24 h, 10 µM was 14.8 ± 0.75%. Besides, the inhibition at 3 µM in data set [2] was 7.52%.
`COc1cc(/C=C/C(=O)/C=C/CCc2ccc(O)c(OC)c2)ccc1O` [CU-20, (1E,4E)-1,7-bis(4-hydroxy-3-methoxyphenyl)-1,4-heptadien-3-one] came in with a melting point of 103 to 105 °C. Besides, in data set [1], the viability at 24 h, 1 µM is 97.31 ± 0.03%; the viability at 24 h, 3 µM was 51.8 ± 0.6%; the viability at 24 h, 10 µM was 12.2 ± 0.21%. The inhibition at 1 µM in data set [2] was found to be 16.9%.
Consider `COc1ccc(CC/C=C/C(=O)/C=C/c2ccccc2)cc1OC` [CU-23, (1E,4E)-7-(3,4-dimethoxyphenyl)-1-phenyl-1,4-heptadien-3-one], for which, in data set [1], the viability at 24 h, 1 µM was found to be 106.5 ± 0.14%; the viability at 24 h, 3 µM amounted to 100.85 ± 0.01%; the viability at 24 h, 10 µM stood at 12.3 ± 0.84%. In addition, the inhibition at 3 µM in data set [2] was 31.4%.
As to `COc1cc(CC/C=C/C(=O)/C=C/c2ccc(O)cc2)ccc1O` [CU-12, (1E,4E)-7-(4-hydroxy-3-methoxyphenyl)-1-(4-hydroxyphenyl)-1,4-heptadien-3-one], in data set [1], the viability at 24 h, 1 µM came out at 92.03 ± 0.29%; the viability at 24 h, 3 µM is 75.55 ± 0.17%; the viability at 24 h, 10 µM was found to be 12.7 ± 0.59%. The inhibition at 1 µM in data set [2] came to 0%.
